Measurements: ChEMBL document CHEMBL1201862, “PubChem BioAssay data set” (2004)
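How tested: cells in 96-well plates exposed to compound for 48 hours at five concentrations. GI50 is the concentration that inhibits growth by half.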 Calls of active or inactive are those of the source. No stated cut-off is given here; in the data, active = GI50 up to about 1.1 µM and inactive = higher.

How the values were obtained:
Experiment in all cases: NCI-60 cell line screen, 48 h
M14 = test system: M14
HCT-116 = test system: HCT-116
HOP-62 = test system: HOP-62
SW-620 = test system: SW-620
SR = test system: SR
OVCAR-4 = test system: OVCAR-4
SNB-75 = test system: SNB-75
MOLT-4 = test system: MOLT-4
OVCAR-8 = test system: OVCAR-8
PC-3 = test system: PC-3
SNB-19 = test system: SNB-19
NCI-H226 = test system: NCI-H226
NCI/ADR-RES = test system: NCI/ADR-RES
RPMI-8226 = test system: RPMI-8226
SF-295 = test system: SF-295
SK-OV-3 = test system: SK-OV-3
COLO 205 = test system: COLO 205
EKVX = test system: EKVX
IGROV-1 = test system: IGROV-1
NCI-H23 = test system: NCI-H23

SMILES	GI50 (M14)	GI50 (HCT-116)	GI50 (HOP-62)	GI50 (SW-620)	GI50 (SR)	GI50 (OVCAR-4)	GI50 (SNB-75)	GI50 (MOLT-4)	GI50 (OVCAR-8)	GI50 (PC-3)	GI50 (SNB-19)	GI50 (NCI-H226)	GI50 (NCI/ADR-RES)	GI50 (RPMI-8226)	GI50 (SF-295)	GI50 (SK-OV-3)	GI50 (COLO 205)	GI50 (EKVX)	GI50 (IGROV-1)	GI50 (NCI-H23)
N=c1oc2ccc([N+](=O)[O-])cc2cc1C(=O)NCc1ccccc1	23.4 µM (inactive)	16.3 µM (inactive)	38.5 µM (inactive)	20 µM (inactive)	34.4 µM (inactive)	24.6 µM (inactive)	11.5 µM (inactive)	27.9 µM (inactive)	15.2 µM (inactive)	19.6 µM (inactive)	39 µM (inactive)	12.9 µM (inactive)	16.5 µM (inactive)	38.7 µM (inactive)	36.4 µM (inactive)	39.2 µM (inactive)	20.6 µM (inactive)	38.8 µM (inactive)	12.3 µM (inactive)	–
Cc1ccccc1C1=C/C(=C(\SS/C(C(=O)c2ccc(OCC(=O)O)c(Cl)c2Cl)=C2\C=C(c3ccccc3C)SS2)C(=O)c2ccc(OCC(=O)O)c(Cl)c2Cl)SS1	25.5 µM (inactive)	21.7 µM (inactive)	51.6 µM (inactive)	26.5 µM (inactive)	24.1 µM (inactive)	21.1 µM (inactive)	34.7 µM (inactive)	19.9 µM (inactive)	26.3 µM (inactive)	6.92 µM (inactive)	22.5 µM (inactive)	17.9 µM (inactive)	63 µM (inactive)	21.5 µM (inactive)	31.3 µM (inactive)	39.9 µM (inactive)	12.2 µM (inactive)	37.8 µM (inactive)	16.4 µM (inactive)	21.5 µM (inactive)
O=C1C(Cl)=C(Nc2ccc(OC(F)(F)F)cc2)C(=O)c2c(O)ccc(O)c21	0.423 µM (active)	0.203 µM (active)	1.17 µM (inactive)	0.891 µM (active)	0.275 µM (active)	1.57 µM (inactive)	0.735 µM (active)	0.359 µM (active)	0.71 µM (active)	0.679 µM (active)	1.22 µM (inactive)	1.5 µM (inactive)	1.74 µM (inactive)	0.0598 µM (active)	1.93 µM (inactive)	1.66 µM (inactive)	1.2 µM (inactive)	0.877 µM (active)	0.745 µM (active)	0.303 µM (active)
COc1ccc(/C=C2\C[C@H]3[C@@H]4CCC5=C[C@@H](N6CCCC6)CC[C@]5(C)[C@H]4CC[C@]3(C)[C@H]2O)cc1	1.51 µM (inactive)	1.98 µM (inactive)	1.66 µM (inactive)	2.3 µM (inactive)	1.01 µM (active)	3.59 µM (inactive)	4.97 µM (inactive)	2.86 µM (inactive)	3.52 µM (inactive)	2.25 µM (inactive)	4.61 µM (inactive)	3.13 µM (inactive)	4.39 µM (inactive)	2.97 µM (inactive)	2.3 µM (inactive)	5.18 µM (inactive)	1.67 µM (inactive)	3.81 µM (inactive)	4.28 µM (inactive)	3.44 µM (inactive)
O=C(O)c1c2c(cc3c1CC1(Cc4ccccc4C1=O)C3)CCC2 (stereo unspecified)	18.9 µM (inactive)	21.6 µM (inactive)	64.7 µM (inactive)	30.1 µM (inactive)	2.93 µM (inactive)	27.8 µM (inactive)	26.5 µM (inactive)	11.4 µM (inactive)	44.9 µM (inactive)	27.2 µM (inactive)	47 µM (inactive)	24.3 µM (inactive)	28.7 µM (inactive)	18.4 µM (inactive)	38.6 µM (inactive)	47.4 µM (inactive)	17.4 µM (inactive)	33.9 µM (inactive)	> 61.5 µM (inactive)	44 µM (inactive)
COC12OC3CC4(C)C(=CC3OC(OC(C)C1O)C2O)CCC1C4CCC2(C)C(c3ccc(=O)oc3)CCC12O (stereo unspecified)	0.0023 µM (active)	0.00136 µM (active)	0.00137 µM (active)	0.00178 µM (active)	0.0014 µM (active)	0.00126 µM (active)	0.00202 µM (active)	0.00105 µM (active)	0.00144 µM (active)	0.00142 µM (active)	0.00213 µM (active)	0.00246 µM (active)	0.00151 µM (active)	0.00177 µM (active)	0.00176 µM (active)	0.00289 µM (active)	0.00196 µM (active)	< 0.001 µM (active)	0.00171 µM (active)	0.00125 µM (active)
O=C1CCCC1C(=O)Nc1ccc2ccccc2c1 (stereo unspecified)	> 100 µM (inactive)	> 100 µM (inactive)	> 100 µM (inactive)	> 100 µM (inactive)	> 100 µM (inactive)	> 100 µM (inactive)	29.4 µM (inactive)	36.2 µM (inactive)	> 100 µM (inactive)	> 100 µM (inactive)	> 100 µM (inactive)	> 100 µM (inactive)	> 100 µM (inactive)	59.2 µM (inactive)	> 100 µM (inactive)	> 100 µM (inactive)	> 100 µM (inactive)	32.1 µM (inactive)	> 100 µM (inactive)	> 100 µM (inactive)
CC(=O)n1nc(-c2[nH]c(C)c(-c3nn(C(C)=O)c(=S)o3)c2C)oc1=S	> 100 µM (inactive)	> 100 µM (inactive)	> 100 µM (inactive)	> 100 µM (inactive)	41 µM (inactive)	> 100 µM (inactive)	> 32.3 µM (inactive)	6.89 µM (inactive)	> 100 µM (inactive)	> 100 µM (inactive)	> 100 µM (inactive)	> 54 µM (inactive)	> 100 µM (inactive)	> 56.6 µM (inactive)	> 100 µM (inactive)	> 100 µM (inactive)	> 100 µM (inactive)	> 100 µM (inactive)	> 100 µM (inactive)	> 100 µM (inactive)
CCN1CCCn2c(=O)[nH]c3cc(Br)cc1c32	> 100 µM (inactive)	> 100 µM (inactive)	25.5 µM (inactive)	> 100 µM (inactive)	> 100 µM (inactive)	> 100 µM (inactive)	16.7 µM (inactive)	60.8 µM (inactive)	27 µM (inactive)	> 100 µM (inactive)	89.1 µM (inactive)	55.5 µM (inactive)	> 100 µM (inactive)	> 100 µM (inactive)	35.1 µM (inactive)	25.2 µM (inactive)	> 100 µM (inactive)	0.706 µM (active)	> 100 µM (inactive)	> 100 µM (inactive)
C=C(CC)C(=O)c1ccc(OCC(=O)O)c(Cl)c1Cl [ETHACRYNIC ACID]	18.5 µM (inactive)	23.1 µM (inactive)	20.5 µM (inactive)	19.3 µM (inactive)	31.6 µM (inactive)	20 µM (inactive)	21.8 µM (inactive)	20.2 µM (inactive)	17.5 µM (inactive)	24.9 µM (inactive)	15.6 µM (inactive)	15.5 µM (inactive)	26.7 µM (inactive)	14.5 µM (inactive)	35.6 µM (inactive)	48.1 µM (inactive)	19 µM (inactive)	17.5 µM (inactive)	22 µM (inactive)	25 µM (inactive)
CC(C)(C)OC(=O)N/N=C(/N)Cc1ccccc1	> 100 µM (inactive)	> 100 µM (inactive)	> 100 µM (inactive)	> 100 µM (inactive)	> 100 µM (inactive)	> 100 µM (inactive)	> 100 µM (inactive)	> 100 µM (inactive)	> 100 µM (inactive)	> 100 µM (inactive)	> 100 µM (inactive)	> 100 µM (inactive)	> 100 µM (inactive)	> 100 µM (inactive)	> 100 µM (inactive)	> 100 µM (inactive)	> 100 µM (inactive)	> 100 µM (inactive)	> 100 µM (inactive)	> 100 µM (inactive)
N/C(S)=N/N=C/c1ccc(N)cn1	2.21 µM (inactive)	3.98 µM (inactive)	5.73 µM (inactive)	> 10 µM (inactive)	3.67 µM (inactive)	> 10 µM (inactive)	2.4 µM (inactive)	1.95 µM (inactive)	3.18 µM (inactive)	6.15 µM (inactive)	9.89 µM (inactive)	4.24 µM (inactive)	3.08 µM (inactive)	3.52 µM (inactive)	3.52 µM (inactive)	9.84 µM (inactive)	2.99 µM (inactive)	> 10 µM (inactive)	> 10 µM (inactive)	2.13 µM (inactive)
COc1ccc2[nH]c(S(=O)(=O)N3CC(CCl)c4ccc(N)cc43)cc2c1 (stereo unspecified)	0.0568 µM (active)	0.0269 µM (active)	0.475 µM (active)	0.0358 µM (active)	< 0.01 µM (active)	2.16 µM (inactive)	0.0718 µM (active)	0.0826 µM (active)	0.266 µM (active)	0.0973 µM (active)	8.22 µM (inactive)	0.252 µM (active)	0.0624 µM (active)	0.103 µM (active)	0.0775 µM (active)	0.208 µM (active)	4.42 µM (inactive)	1.85 µM (inactive)	0.0547 µM (active)	–
O=C1CC(=O)NC(NN2C(=O)CSC2c2ccc(Cl)c(Cl)c2)=N1 (stereo unspecified)	31.6 µM (inactive)	63.2 µM (inactive)	> 100 µM (inactive)	> 100 µM (inactive)	43.8 µM (inactive)	> 100 µM (inactive)	75 µM (inactive)	23.3 µM (inactive)	> 100 µM (inactive)	> 100 µM (inactive)	–	> 100 µM (inactive)	> 100 µM (inactive)	> 100 µM (inactive)	> 100 µM (inactive)	> 100 µM (inactive)	> 100 µM (inactive)	–	50.9 µM (inactive)	> 100 µM (inactive)
